Tests used:
[1] = tested on: advanced colorectal cancer; conditions: treatment of advanced colorectal cancer; cited from earlier work
[2] = tested on: refractory metastatic colorectal cancer / refractory solid tumors; conditions: cited from earlier work
[3] = tested on: ectopic patient-derived colon tumor; conditions: irinotecan and AZD2014 combination; cited from earlier work
SW480 cells = conditions: irinotecan and AZD2014 combination; orthotopic implantation; cited from earlier work
[4] = tested on: AOM/DSSATKN tumor organoids; conditions: P2x4 inhibitor in combination with 5-FU (20 μM) compared to each treatment alone; AOM/DSS tumor organoids
Text: Percentage of reseeding capacity compared to vehicle treated organoids is indicated. Data are mean±SD, n=4 replicates. […] Percentage of reseeding capacity compared to vehicle treated organoids is indicated.

[5] = tested on: S6 ribosomal protein phosphorylation (mTOR signaling); test: Immunoblot analysis of survival pathways / S6 phosphorylation in AOM/DSS tumor organoids; format: cell-based, mice; conditions: ATP (100 μM) in presence of inhibitor; AOM/DSS tumor organoids
Experimental: Data are mean±SD, n=7. *p<0.05 by two-tailed Student's t-test. c, Immunoblot analysis of Lgr5EGFP-DTR(−) tumor organoids treated with ATP (100 μM), 2MeS ADP (100 μM) and adenosine (100 μM) for 30 min. […] Data are mean±SD, n=4 replicates. […] Data are mean±SD, n=3 replicates. One representative of three experiment performed is shown. n.s. p>0,05, *p<0.05***, p<0.001, ****p<0.0001 by 1-way ANOVA with Bonferroni's multiple comparison test. 1, Immunoblot analysis of doxycycline inducible P2x4 knockdown APTAK colon tumor organoids treated with 5-FU (20 μM). Organoids were cultured in medium−/+doxycycline prior to the experiment. […] Organoids were cultured in medium−/+doxycycline prior to the experiment. […] Data are mean±SD, n=3.
In vitro Lgr5+ cells ablation experiments, organoids were treated with 20 ng/ml DT (Millipore, #322326) in the culture medium. For human LGR5+ cells ablation, we treated LGR5-iCT organoids with 500 nM BB homodimerizer. Other treatments were performed as described in each figure legends.

APTAK tumor organoids = test: APTAK tumor organoids: S6 phosphorylation and organoid survival; format: cell-based, mice; conditions: P2x4 inhibitor in combination with 5-FU compared to each treatment alone
Experimental: Organoids were cultured in medium−/+doxycycline prior to the experiment. […] Organoids were cultured in medium−/+doxycycline prior to the experiment.
Colon tumor organoids were cultured as previously described (27). AOM/DSS induced colon tumors were harvested by opening the colon longitudinally and dissociated enzymatically for 30-40 min in digestion media containing 1 mg/ml collagenase I (Sigma-Aldrich), 0.5 mg/ml Dispase (Roche), 50 μg/ml DNase (Sigma-Aldrich) in RPMI medium containing 2% FCS. Supernatant was washed and filtered through a 70 μM cell strainer. Cells were then embedded in Matrigel (Corning, #356231) and cultured in Advanced Dulbecco's modified Eagle's medium/F12 (Invitrogen, #12634-028) supplemented with Glutamax (Invitrogen, #35050038), Hepes (Invitrogen, #15630056), Pen/Strep (Invitrogen, #15140122), N2 supplement (Invitrogen, #17502048), B27supplement (Invitrogen, #17504044) and n-Acetylcysteine (Sigma-Aldrich, #A91165). EGF (Invitrogen, #PMG8045), RspoI and noggin were added as niche factor.

rat P2X4 receptor = target: T1, rat P2X4 receptor (Rattus norvegicus, UniProt P51577); conditions: cited from earlier work
T1 sequence (P51577 1-388): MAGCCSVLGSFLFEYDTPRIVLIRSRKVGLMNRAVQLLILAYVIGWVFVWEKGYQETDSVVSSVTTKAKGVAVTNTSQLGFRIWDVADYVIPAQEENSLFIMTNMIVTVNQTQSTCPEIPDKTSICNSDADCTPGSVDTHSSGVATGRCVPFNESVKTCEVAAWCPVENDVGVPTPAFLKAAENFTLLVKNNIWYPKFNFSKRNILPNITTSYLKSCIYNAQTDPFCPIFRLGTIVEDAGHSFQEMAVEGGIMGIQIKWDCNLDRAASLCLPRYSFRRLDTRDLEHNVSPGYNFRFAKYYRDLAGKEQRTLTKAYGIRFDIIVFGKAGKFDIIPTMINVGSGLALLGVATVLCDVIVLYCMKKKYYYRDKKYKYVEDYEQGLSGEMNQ

PC3 and C4-2B4 cells = conditions: selective P2XR4 antagonists; cited from earlier work
[6] = tested on: patient-derived tumor organoids (PDTO) from pancreatic ductal adenocarcinoma; conditions: P2X4 inhibitor 5-BDBD combined with 5-FU
[7] = 24 patients with refractory metastatic colorectal cancer, everolimus combination cohorts

What does the source list for `CO[C@H]1C[C@@H]2CC[C@@H](C)[C@@](O)(O2)C(=O)C(=O)N2CCCC[C@H]2C(=O)O[C@H]([C@H](C)C[C@@H]2CC[C@@H](OCCO)[C@H](OC)C2)CC(=O)[C@H](C)/C=C(\C)[C@@H](O)[C@@H](OC)C(=O)[C@H](C)C[C@H](C)/C=C/C=C/C=C/1C` [everolimus]?
clinical activity [1]: limited clinical activity; median time on treatment [2, 7]: 2.7 months; patients remaining on treatment with stable disease for at least 3 months [2, 7]: 45%; safety and tolerability ([2]; everolimus in addition to 5-FU/LV and mFOLFOX6): appears safe and tolerable

What does the source list for `CNC(=O)c1cccc(-c2ccc3c(N4CCOC[C@@H]4C)nc(N4CCOC[C@@H]4C)nc3n2)c1` [AZD2014]?
tumor growth [3]: drastically reduced ectopic patient-derived colon tumor growth; liver and lung metastases (SW480 cells): totally inhibited liver and lung metastases

Which organoid survival [4] does the source give for `O=C1CN=C(c2cccc(Br)c2)c2oc3ccccc3c2N1` [5-BDBD, 5-(3-bromophenyl)-1,3-dihydro-2H-benzofuro[3,2-e]-1,4-diazepin-2-one] here?
The organoid survival was “decreased organoid survival”.

What about the “ATP induced phosphorylation of S6” value [5] of the same molecule?
The value was “reduced phosphorylation of S6 by ATP”.

And the organoid survival (APTAK tumor organoids)?
Its organoid survival is “decreased organoid survival”.

What about the “antagonist action on ATP-induced currents” value (rat P2X4 receptor) of the same molecule?
The value was “specific P2X4R antagonist”.

And the “growth, mobility and apoptosis of PCa cells” value (PC3 and C4-2B4 cells)?
The value was “impaired the growth and mobility of PCa cells but not apoptosis”.

And the tumor organoid survival [6]?
The tumor organoid survival was “sensitizes tumor organoids to 5-FU administration and leads to reduced tumor organoid survival”.
